{"source": "patent US20210322297A9", "about": "“COSMETIC COMPOSITIONS FOR PROTECTION AGAINST LIGHT-INDUCED DAMAGES” (priority 2018, published 2021)", "tested_on": "Human keratinocytes (HaCAT)", "assay": "Carbonyl Score analysis: blue light (460 nm)-induced protein oxidative damage (carbonylation)", "assay_type": "cell-based", "source_text": "Human keratinocytes (HaCAT) were irradiated in the presence or absence of a composition (C-1) comprising equal weight amounts of extracts (Q), (GS) and (GT) (VitakeloxTM) using an irradiation system available from OxiProteomics®. A solution of N-acetyl-cysteine was used as positive control of protection. Just after irradiation, proteins were extracted from the cells and analyzed. Carbonylated proteins were labeled with specific functionalized fluorescent probes and the resulting samples were resolved by high-resolution electrophoresis. Total proteins were post-stained with SyproTM Ruby protein gel stain. A Carbonyl (protein damage) Score was obtained for each sample after normalization of the fluorescent signal for carbonylated proteins by total proteins. A significant increase in protein oxidative damage was observed upon blue light irradiation. This increase was prevented in the presence of composition (C-1) at two different concentrations (0.01% and 0.005% w/v) and with two times of treatment (6 hours and 24 hours). HaCaT cells were cultured in calcium-free DMEM (Dulbecco's Modified Eagle Medium), with 10% SVF […], at 37° C. and humid atmosphere, supplemented with 5% CO2. Cells were seeded (500.000 cells/well) at day 0 (D0) in multi-well plates containing culture medium and distributed in 8 experimental groups as depicted in Table 1. On day 1 (D1), two solutions of composition (C-1) having two different concentrations (0.01% and 0.005%) were prepared by solubilisation of the composition in the culture medium. Experimental groups 4 and 6 were incubated for 24 hours (t2) with the solutions prior to irradiation. At day 2 (D2), experimental groups 3 and 5 were incubated for 6 hours (t1) prior to blue light irradiation. Groups 7 and 8 were incubated with a solution of NAC (N-acetyl-cysteine) for 6 and 24 hours. On day 2 (D2), the cells were washed and a stress was induced by irradiation with Blue Light (LED source, emission peak at λ=460 nm), using an OxiProteomics® irradiation system. Group 1 was not irradiated. Just after irradiation, cells were collected, snap-frozen and stored at -80° C. for the analysis. Proteins were extracted from cells, quantified by the Bradford method and split into equal amounts for analyses. […] After extraction and solubilisation, proteins in samples were quantified by the Bradford method using calibrated BSA (bovine serum albumin) as standard (Bradford M. Anal. Biochem., 72, 248, 1976). […] Proteins were fixed to the gel and the carbonylated proteins were evidenced by fluorescence scanning. […] Quantification was obtained from each sample, both for carbonylated and total proteins. […]", "note": "Several values for one entry are separate records, joined by “and”; a condition that tells them apart may be missing. Equal values may be shown once."}
{"smiles": "CC(=O)N[C@@H](CS)C(=O)O", "note": "[NAC, N-acetyl-cysteine]", "values": [{"measurement": "Carbonyl Score", "setting": "NAC 6 h incubation before blue light irradiation, group G-7, carbonylated signal normalized by total protein signal", "result": "0.734 and 0.742 and 0.657"}, {"measurement": "Oxidized proteins", "setting": "NAC 6 h incubation before blue light irradiation, group G-7, densitometric signal per replicate", "result": "12101.36 and 11379.65 and 10415.94"}, {"measurement": "Carbonyl Score", "setting": "NAC 24 h incubation before blue light irradiation, group G-8, carbonylated signal normalized by total protein signal", "result": "0.639 and 0.700 and 0.631"}, {"measurement": "Oxidized proteins", "setting": "NAC 24 h incubation before blue light irradiation, group G-8, densitometric signal per replicate", "result": "9126.82 and 11501.94 and 10859.53"}]}
